In US20080279868A1, “Antibody-Drug Conjugates and Methods of Use” (priority 2005, published 2008):

Assay: Rate of cyclization of 6-membered hydrazine linker in buffer
Assay type: physicochemical
Details: for rate of cyclization of the hydrazine linker: buffer at pH 7.4
Description: A duocarmycin analog conjugated to a dimethyl 6-membered hydrazine linker was incubated in buffer at pH 7.4 for 24 hours and the generation of cyclized product resulting from cyclization of the hydrazine linker, thereby releasing free duocarmycin analog, was assessed over time.
A duocarmycin analog conjugated to a gem-dimethyl 6-membered hydrazine linker was incubated in buffer at pH 7.4 and the generation of cyclized product resulting from cyclization of the hydrazine linker, thereby releasing free duocarmycin analog, was assessed over time.

Q: For `COC(=O)c1c(C)[nH]c2c(OC(=O)N(C)CC(=O)N(C)N)cc3c(c12)[C@H](CCl)CN3C(=O)c1cc2cc(OC)ccc2o1`, which “rate of cyclization of the hydrazine linker” value is on record?
A: relatively slow rate of cyclization

Q: And the “generation of cyclized product resulting from cyclization of the hydrazine linker” value (buffer at pH 7.4, over 24 hours)?
A: Minimal amounts of cyclized product

Q: For `COC(=O)c1c(C)[nH]c2c(OC(=O)N(C)C(C)(C)C(=O)N(C)N)cc3c(c12)[C@H](CCl)CN3C(=O)c1cc2cc(OC)ccc2o1`, which “rate of cyclization of the hydrazine linker” value is on record?
A: proceeding to completion within a few minutes
